Measurements taken from publication PMC6576746, “Rational discovery of dual-indication multi-target PDE/Kinase inhibitor for precision anti-cancer therapy using structural systems pharmacology” (PLoS Computational Biology, 2019).

Columns and labels:
Experiment in all cases: cells
Design in all cases: species or system panel of human cancer cell lines; Eurofins OncoPanel proliferation; nuclei count by high-content fluorescence imaging, 10-point dose response
SW-13 = details: Homo sapiens, SW13, 72 h, cell count, 3 days
In short: (§1)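 Cells in RPMI 1640/10% FBS or special medium received compound the day after seeding, with a time-zero plate; 3-day incubation at 37°C, 5% CO2. Nuclei imaged by fluorescence microscopy; 10 half-log doses from 100 μM, 0.1% DMSO. EC50, IC50, GI50 and activity area (0–10) from curve fits.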

Hs 934.T = details: 72 h, cell count, 3 days
In short: as §1

SNB-19 = details: Homo sapiens, SNB-19, 72 h, cell count, 3 days
In short: as §1

HT1376 = details: Homo sapiens, HT-1376, 72 h, cell count, 3 days
In short: as §1

MOLT-3 = details: Homo sapiens, MOLT-3, 72 h, cell count, 3 days
In short: as §1

AGS = details: Homo sapiens, AGS, 72 h, cell count, 3 days
In short: as §1

CA46 = details: Homo sapiens, CA46, 72 h, cell count, 3 days
In short: as §1

LS-174T = details: Homo sapiens, LS174T, 72 h, cell count, 3 days
In short: as §1

KHOS-240S = details: KHOS-240S, 72 h, cell count, 3 days
In short: as §1

RS4;11 = details: Homo sapiens, RS4-11, 72 h, cell count, 3 days
In short: as §1

U266B1 = details: 72 h, cell count, 3 days
In short: as §1

BeWo = details: Homo sapiens, BeWo, 72 h, cell count, 3 days
In short: as §1

Hs 852.T = details: 72 h, cell count, 3 days
In short: as §1

OE19 = details: Homo sapiens, OE19, 72 h, cell count, 3 days
In short: as §1

[1] = 50% of maximum possible response

C[C@@H]1CC(=O)NN=C1c1ccc(NN=C(C#N)C#N)cc1 [levosimendan]
IC50 (SW-13; [1]): 6.13 µM | GI50 (SW-13; corrected for time zero): 3.72 µM | EC50 (SW-13; curve inflection point): 6.13 µM | IC50 (Hs 934.T; [1]): > 100 µM | GI50 (Hs 934.T; corrected for time zero): > 100 µM | EC50 (Hs 934.T; curve inflection point): > 100 µM | IC50 (SNB-19; [1]): > 100 µM | GI50 (SNB-19; corrected for time zero): > 100 µM | EC50 (SNB-19; curve inflection point): > 100 µM | IC50 (HT1376; [1]): > 100 µM | GI50 (HT1376; corrected for time zero): > 100 µM | EC50 (HT1376; curve inflection point): > 100 µM | IC50 (MOLT-3; [1]): 32.4 µM | GI50 (MOLT-3; corrected for time zero): 19.9 µM | EC50 (MOLT-3; curve inflection point): 30.5 µM | IC50 (AGS; [1]): 4.21 µM | GI50 (AGS; corrected for time zero): 3.91 µM | EC50 (AGS; curve inflection point): 3.93 µM | IC50 (CA46; [1]): 13.2 µM | GI50 (CA46; corrected for time zero): 11 µM | EC50 (CA46; curve inflection point): 13.2 µM | IC50 (LS-174T; [1]): > 100 µM | GI50 (LS-174T; corrected for time zero): > 100 µM | EC50 (LS-174T; curve inflection point): > 100 µM | IC50 (KHOS-240S; [1]): 16.9 µM | GI50 (KHOS-240S; corrected for time zero): 13.5 µM | EC50 (KHOS-240S; curve inflection point): 16.9 µM | IC50 (RS4;11; [1]): 29.7 µM | GI50 (RS4;11; corrected for time zero): 19.6 µM | EC50 (RS4;11; curve inflection point): 25.4 µM | IC50 (U266B1; [1]): 95.7 µM | GI50 (U266B1; corrected for time zero): 46.2 µM | EC50 (U266B1; curve inflection point): 95.7 µM | IC50 (BeWo; [1]): 37.4 µM | GI50 (BeWo; corrected for time zero): 33.9 µM | EC50 (BeWo; curve inflection point): 37.4 µM | IC50 (Hs 852.T; [1]): 82.2 µM | GI50 (Hs 852.T; corrected for time zero): 25 µM | EC50 (Hs 852.T; curve inflection point): 82.2 µM | IC50 (OE19; [1]): > 100 µM | GI50 (OE19; corrected for time zero): 96.8 µM | EC50 (OE19; curve inflection point): > 100 µM
